Where “and” joins values, the source holds several entries; their conditions need not be identical. Identical values can stand only once.
Key:
Format in all cases: biochemical
mAC1 = biological target: T1, mAC1 (Homo sapiens, UniProt Q08828); test: AC assay, Gsα-stimulated mAC1 in membranes from transfected HEK293 cells; settings: 20 µM fatty acid; 300 nM Gsα; single experiments
T1 construct: Human mAC genes were from GenScript and fitted with a C-terminal FLAG-tag; FLAG (C); made in house; host or cells: HEK293, permanently transfected; membrane preparation
Method: (§1) hAC sequences were from NCBI were: ADCY1: NM_021116.3; ADCY2: NM_020546.2; ADCY3: NM_004036.4; ADCY4: NM_001198568.2; ADCY5: NM_183357.2; ADCY6: NM_015270.4; ADCY7: NM_001114.4; ADCY8: NM_001115.2; ADCY9: NM_001116.3. Human mAC genes were from GenScript and fitted with a C-terminal FLAG-tag. […] The gene was synthesized by GenScript. HEK293 cells were maintained in Dulbeccos Modified Eagle Medium (DMEM) with 10% fetal bovine serum at 37°C and 5% CO2. Transfection with AC plasmids was with PolyJet (SignaGen, Frederick, MD, USA). Permanent cell lines were generated by selection for 7 days with 600 µg/ml G418 and maintained with 300 µg/ml For membrane preparation, cells were tyrpsinized, collected by centrifugation (3000 × g, 5 min) and lysed and homogenized in 20 mM HEPES, pH 7.5, 1 mM Ethylenediaminetetraacetic acid (EDTA), 2 mM MgCl2, 1 mM Dithiothreitol (DTT), one tablet of cOmplete, EDTA-free (per 50 ml) and 250 mM sucrose by 20 strokes in a potter homogenizer on ice. Debris was removed (5 min at 1000 × g, 0°C), membranes were collected at 100,000 × g, 60 min at 0°C, suspended and stored at −80°C in 20 mM MOPS, pH 7.5, 0.5 mM EDTA, 2 mM MgCl2. […] Three cerebral cortices were dissected and homogenized in 4.5 ml cold 48 mM Tris–HCl, pH 7.4, 12 mM MgC1_2, and 0.1 mM Ethylene glycol-bis(β-aminoethyl ether)-N,N,N′,N′-tetraacetic acid (EGTA) with a Polytron hand disperser (Kinematica AG, Switzerland). […] The pellet was washed once with 5 ml 1 mM KHCO3. The final suspension in 2 ml 1 mM KHCO3 was stored in aliquots at −80°C.
(§2) In a volume of 10 μl, AC activities were measured using 1 mM ATP, 2 mM MgCl2, 3 mM creatine phosphate, 60 μg/ml creatine kinase, and 50 mM MOPS pH 7.5. The cAMP assay kit from Cisbio (Codolet, France) was used for detection according to the supplier’s instructions. For each assay, a cAMP standard curve was established. EC50 and IC50 values were calculated by GraphPad Prism version 8.4.3 for Windows, GraphPad Software, San Diego, CA, USA, https://www.graphpad.com .

mAC2 = biological target: T2, mAC2 (Homo sapiens, UniProt Q08462); test: AC assay, Gsα-stimulated mAC2 in membranes from transfected HEK293 cells; settings: Figure 5-figure supplement 1 left, 20 µM
T2 construct: Human mAC genes were from GenScript and fitted with a C-terminal FLAG-tag; FLAG (C); made in house; host or cells: HEK293, permanently transfected; membrane preparation
Method: as §1, §2

mAC3 = biological target: T3, mAC3 (Homo sapiens, UniProt O60266); test: AC assay, Gsα-stimulated mAC3 in membranes from transfected HEK293 cells; settings: for mAC3 activity [%] (100% = 300nM Gsα stimulation): individual experiments; for Effect of lipid on 300 nM Gsα-stimulated mAC3: 20 µM, in words
T3 construct: Human mAC genes were from GenScript and fitted with a C-terminal FLAG-tag; FLAG (C); made in house; host or cells: HEK293, permanently transfected; membrane preparation
Method: as §1, §2

mAC4 = biological target: T4, mAC4 (Homo sapiens, UniProt Q8NFM4); test: AC assay, Gsα-stimulated mAC4 in membranes from transfected HEK293 cells; settings: 20 µM fatty acid; 300 nM Gsα; single experiments
T4 construct: Human mAC genes were from GenScript and fitted with a C-terminal FLAG-tag; FLAG (C); made in house; host or cells: HEK293, permanently transfected; membrane preparation
T4 sequence (Q8NFM4 1-1077): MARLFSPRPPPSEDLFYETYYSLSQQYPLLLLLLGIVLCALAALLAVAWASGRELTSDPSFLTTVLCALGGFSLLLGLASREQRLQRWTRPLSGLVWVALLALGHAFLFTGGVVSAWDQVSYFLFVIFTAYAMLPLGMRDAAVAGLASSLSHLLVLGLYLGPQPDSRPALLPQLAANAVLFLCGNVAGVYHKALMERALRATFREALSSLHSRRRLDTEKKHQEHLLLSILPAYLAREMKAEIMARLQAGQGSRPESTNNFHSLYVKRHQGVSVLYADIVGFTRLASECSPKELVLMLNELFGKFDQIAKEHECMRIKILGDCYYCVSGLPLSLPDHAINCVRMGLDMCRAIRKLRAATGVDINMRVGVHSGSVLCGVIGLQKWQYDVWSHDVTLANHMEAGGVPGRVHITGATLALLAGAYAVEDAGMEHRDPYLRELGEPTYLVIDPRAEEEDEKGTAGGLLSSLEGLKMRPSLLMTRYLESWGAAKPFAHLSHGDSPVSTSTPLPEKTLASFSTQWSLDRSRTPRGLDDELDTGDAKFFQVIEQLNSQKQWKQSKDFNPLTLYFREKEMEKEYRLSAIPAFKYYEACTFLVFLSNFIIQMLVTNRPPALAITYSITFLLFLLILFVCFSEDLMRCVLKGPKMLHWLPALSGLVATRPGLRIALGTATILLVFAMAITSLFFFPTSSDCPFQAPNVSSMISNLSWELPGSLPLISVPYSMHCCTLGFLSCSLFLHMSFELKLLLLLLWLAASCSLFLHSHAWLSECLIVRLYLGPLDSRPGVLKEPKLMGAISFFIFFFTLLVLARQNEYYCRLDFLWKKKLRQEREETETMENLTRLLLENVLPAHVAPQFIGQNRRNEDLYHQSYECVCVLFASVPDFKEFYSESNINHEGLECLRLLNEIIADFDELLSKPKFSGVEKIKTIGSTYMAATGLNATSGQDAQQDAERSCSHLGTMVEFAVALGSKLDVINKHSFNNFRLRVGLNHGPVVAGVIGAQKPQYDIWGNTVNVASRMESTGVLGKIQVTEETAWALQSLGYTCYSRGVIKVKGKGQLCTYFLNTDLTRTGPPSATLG
Method: as §1, §2

mAC5 = biological target: T5, mAC5 (Homo sapiens, UniProt O95622); test: AC assay, Gsα-stimulated mAC5 in membranes from transfected HEK293 cells
T5 construct: Human mAC genes were from GenScript and fitted with a C-terminal FLAG-tag; FLAG (C); made in house; host or cells: HEK293, permanently transfected; membrane preparation
T5 sequence (O95622 whole entry): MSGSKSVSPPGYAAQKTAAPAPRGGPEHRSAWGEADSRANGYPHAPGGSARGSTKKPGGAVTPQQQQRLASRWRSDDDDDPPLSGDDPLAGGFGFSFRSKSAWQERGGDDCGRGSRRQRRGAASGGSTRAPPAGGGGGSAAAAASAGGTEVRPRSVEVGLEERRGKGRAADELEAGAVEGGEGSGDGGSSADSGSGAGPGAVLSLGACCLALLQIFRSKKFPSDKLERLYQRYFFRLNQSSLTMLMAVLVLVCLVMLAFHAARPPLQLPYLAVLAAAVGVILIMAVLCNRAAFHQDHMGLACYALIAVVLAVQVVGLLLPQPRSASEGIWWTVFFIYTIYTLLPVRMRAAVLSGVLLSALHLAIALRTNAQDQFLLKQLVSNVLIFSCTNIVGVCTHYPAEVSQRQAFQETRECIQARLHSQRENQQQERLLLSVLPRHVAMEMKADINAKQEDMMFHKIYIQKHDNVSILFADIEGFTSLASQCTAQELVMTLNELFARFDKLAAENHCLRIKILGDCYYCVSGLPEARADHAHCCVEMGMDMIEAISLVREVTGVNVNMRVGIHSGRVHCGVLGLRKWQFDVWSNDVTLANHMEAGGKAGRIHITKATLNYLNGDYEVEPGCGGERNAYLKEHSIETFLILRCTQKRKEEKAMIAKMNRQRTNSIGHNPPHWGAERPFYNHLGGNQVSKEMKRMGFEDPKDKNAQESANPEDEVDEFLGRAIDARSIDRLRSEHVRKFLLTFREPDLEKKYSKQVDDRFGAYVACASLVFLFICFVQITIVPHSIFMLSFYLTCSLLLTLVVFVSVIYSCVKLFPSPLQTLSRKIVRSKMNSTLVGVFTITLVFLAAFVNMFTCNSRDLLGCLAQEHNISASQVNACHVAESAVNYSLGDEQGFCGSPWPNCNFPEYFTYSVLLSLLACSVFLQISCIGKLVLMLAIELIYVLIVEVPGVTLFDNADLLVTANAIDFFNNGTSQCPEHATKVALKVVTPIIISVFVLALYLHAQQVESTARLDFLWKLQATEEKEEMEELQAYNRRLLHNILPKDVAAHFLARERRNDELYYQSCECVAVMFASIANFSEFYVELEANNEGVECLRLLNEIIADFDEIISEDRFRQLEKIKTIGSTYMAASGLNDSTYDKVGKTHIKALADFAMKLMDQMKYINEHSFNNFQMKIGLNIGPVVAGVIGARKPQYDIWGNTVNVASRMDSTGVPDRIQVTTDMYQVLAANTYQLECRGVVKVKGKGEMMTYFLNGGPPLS
Method: as §1, §2

mAC6 = biological target: T6, mAC6 (Homo sapiens, UniProt O43306); test: AC assay, Gsα-stimulated mAC6 in membranes from transfected HEK293 cells; settings: 20µM fatty acid concentration
T6 construct: Human mAC genes were from GenScript and fitted with a C-terminal FLAG-tag; FLAG (C); made in house; host or cells: HEK293, permanently transfected; membrane preparation
T6 sequence (O43306 whole entry): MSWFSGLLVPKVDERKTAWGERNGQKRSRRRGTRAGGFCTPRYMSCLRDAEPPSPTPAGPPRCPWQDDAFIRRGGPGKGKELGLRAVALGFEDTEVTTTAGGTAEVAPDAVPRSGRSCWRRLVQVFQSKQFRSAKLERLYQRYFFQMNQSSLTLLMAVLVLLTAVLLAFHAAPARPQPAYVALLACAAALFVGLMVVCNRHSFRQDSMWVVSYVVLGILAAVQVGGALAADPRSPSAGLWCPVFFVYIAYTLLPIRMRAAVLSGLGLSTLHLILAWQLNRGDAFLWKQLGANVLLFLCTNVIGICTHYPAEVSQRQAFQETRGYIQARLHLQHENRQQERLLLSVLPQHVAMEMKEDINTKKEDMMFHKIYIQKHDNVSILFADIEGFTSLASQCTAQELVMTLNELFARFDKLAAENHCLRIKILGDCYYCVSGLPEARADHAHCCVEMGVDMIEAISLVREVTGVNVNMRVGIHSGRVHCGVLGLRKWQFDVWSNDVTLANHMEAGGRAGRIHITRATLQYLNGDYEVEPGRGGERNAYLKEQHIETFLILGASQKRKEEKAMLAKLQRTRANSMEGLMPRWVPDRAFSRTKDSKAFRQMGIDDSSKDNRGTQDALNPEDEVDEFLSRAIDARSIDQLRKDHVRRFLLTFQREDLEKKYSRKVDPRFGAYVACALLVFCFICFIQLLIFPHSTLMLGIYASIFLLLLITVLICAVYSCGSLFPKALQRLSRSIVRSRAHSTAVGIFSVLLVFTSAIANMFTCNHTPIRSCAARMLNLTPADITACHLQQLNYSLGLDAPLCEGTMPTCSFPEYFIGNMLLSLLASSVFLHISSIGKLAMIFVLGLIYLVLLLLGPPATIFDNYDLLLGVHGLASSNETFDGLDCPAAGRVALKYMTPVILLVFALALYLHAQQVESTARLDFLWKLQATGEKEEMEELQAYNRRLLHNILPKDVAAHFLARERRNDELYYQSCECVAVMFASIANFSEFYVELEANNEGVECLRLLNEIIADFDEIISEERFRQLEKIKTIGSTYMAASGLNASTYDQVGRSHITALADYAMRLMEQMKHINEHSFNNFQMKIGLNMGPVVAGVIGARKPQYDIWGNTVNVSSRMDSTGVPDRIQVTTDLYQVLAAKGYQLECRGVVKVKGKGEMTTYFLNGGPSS
Method: as §1, §2

mAC7 = biological target: T7, mAC7 (Homo sapiens, UniProt P51828); test: AC assay, Gsα-stimulated mAC7 in membranes from transfected HEK293 cells; settings: Figure 5-figure supplement 2 left, 20 µM
T7 construct: Human mAC genes were from GenScript and fitted with a C-terminal FLAG-tag; FLAG (C); made in house; host or cells: HEK293, permanently transfected; membrane preparation
Method: as §1, §2

mAC8 = biological target: T8, mAC8 (Homo sapiens, UniProt P40145); test: AC assay, Gsα-stimulated mAC8 in membranes from transfected HEK293 cells; settings: 20µM fatty acid concentration
T8 construct: Human mAC genes were from GenScript and fitted with a C-terminal FLAG-tag; FLAG (C); made in house; host or cells: HEK293, permanently transfected; membrane preparation
Method: as §1, §2

mAC9 = biological target: T9, mAC9 (Homo sapiens, UniProt O60503); test: AC assay, Gsα-stimulated mAC9 in membranes from transfected HEK293 cells; settings: for EC50: enhancement of 300 nM Gsα-stimulated activity, read-out: EC50 for mAC9
T9 construct: Human mAC genes were from GenScript and fitted with a C-terminal FLAG-tag; FLAG (C); made in house; host or cells: HEK293, permanently transfected; membrane preparation
T9 sequence (O60503 whole entry): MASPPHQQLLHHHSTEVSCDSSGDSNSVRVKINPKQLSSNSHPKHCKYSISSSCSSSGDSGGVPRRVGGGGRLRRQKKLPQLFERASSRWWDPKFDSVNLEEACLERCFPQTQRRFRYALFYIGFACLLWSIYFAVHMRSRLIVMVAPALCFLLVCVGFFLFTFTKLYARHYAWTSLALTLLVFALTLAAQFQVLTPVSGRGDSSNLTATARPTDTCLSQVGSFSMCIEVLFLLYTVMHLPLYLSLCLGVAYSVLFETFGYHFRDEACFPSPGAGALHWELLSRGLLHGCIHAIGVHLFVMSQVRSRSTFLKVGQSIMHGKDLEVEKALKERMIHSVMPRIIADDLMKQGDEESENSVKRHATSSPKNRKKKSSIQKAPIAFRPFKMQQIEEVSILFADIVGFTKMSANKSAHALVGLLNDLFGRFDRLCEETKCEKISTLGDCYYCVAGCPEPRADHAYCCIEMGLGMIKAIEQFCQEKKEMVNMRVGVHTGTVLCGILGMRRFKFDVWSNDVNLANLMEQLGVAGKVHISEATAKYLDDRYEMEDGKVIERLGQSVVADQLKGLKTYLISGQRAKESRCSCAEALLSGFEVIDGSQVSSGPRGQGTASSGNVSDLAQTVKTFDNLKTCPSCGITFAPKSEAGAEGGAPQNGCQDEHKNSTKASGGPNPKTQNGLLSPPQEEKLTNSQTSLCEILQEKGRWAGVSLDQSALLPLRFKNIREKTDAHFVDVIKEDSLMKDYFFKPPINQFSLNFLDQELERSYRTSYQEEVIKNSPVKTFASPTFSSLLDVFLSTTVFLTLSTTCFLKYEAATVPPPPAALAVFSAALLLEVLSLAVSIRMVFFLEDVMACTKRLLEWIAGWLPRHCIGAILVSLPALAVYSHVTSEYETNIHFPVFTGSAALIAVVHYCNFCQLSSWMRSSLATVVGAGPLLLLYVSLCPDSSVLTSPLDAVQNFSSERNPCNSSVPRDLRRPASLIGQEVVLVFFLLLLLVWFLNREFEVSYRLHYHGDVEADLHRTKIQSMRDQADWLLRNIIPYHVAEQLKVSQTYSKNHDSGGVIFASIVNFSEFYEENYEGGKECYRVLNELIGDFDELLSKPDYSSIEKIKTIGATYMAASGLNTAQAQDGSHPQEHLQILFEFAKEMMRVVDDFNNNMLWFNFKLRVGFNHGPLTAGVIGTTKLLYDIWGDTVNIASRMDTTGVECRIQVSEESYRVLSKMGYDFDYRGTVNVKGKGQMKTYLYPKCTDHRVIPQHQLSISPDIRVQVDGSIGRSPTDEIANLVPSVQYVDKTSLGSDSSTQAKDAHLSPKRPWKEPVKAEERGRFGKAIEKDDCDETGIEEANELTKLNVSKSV
T9 sequence (P63092 2-394 Q227L partner): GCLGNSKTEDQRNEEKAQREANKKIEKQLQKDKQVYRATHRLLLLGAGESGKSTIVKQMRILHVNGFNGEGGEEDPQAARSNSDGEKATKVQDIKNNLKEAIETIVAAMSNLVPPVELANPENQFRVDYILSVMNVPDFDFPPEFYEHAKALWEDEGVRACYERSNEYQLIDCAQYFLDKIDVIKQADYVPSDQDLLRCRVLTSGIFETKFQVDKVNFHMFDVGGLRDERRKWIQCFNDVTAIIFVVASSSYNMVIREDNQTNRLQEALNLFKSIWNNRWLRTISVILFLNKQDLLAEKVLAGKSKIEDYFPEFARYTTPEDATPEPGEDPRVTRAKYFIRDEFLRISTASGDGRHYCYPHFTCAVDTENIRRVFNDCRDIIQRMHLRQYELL
Method: as §1, §2

[1] = 20 µM fatty acid, 300 nM Gsα, single experiments
[2] = 3 µM fatty acid, 300 nM Gsα, single experiments
[3] = 6 µM fatty acid, 300 nM Gsα, single experiments
[4] = 10 µM fatty acid, 300 nM Gsα, single experiments

SMILES	mAC1 activity [%] (100% = 300nM Gsα stimulation); 20µM fatty acid concentration (mAC1)	mAC2 activity [%] (100% = 300nM Gsα stimulation); 20µM fatty acid concentration (mAC2)	mAC3 activity [%] (100% = 300nM Gsα stimulation) (mAC3; fatty acid 20 µM)	mAC4 activity [%] (100% = 300nM Gsα stimulation); 20µM fatty acid concentration (mAC4)	mAC5 activity [%] (100% = 300nM Gsα stimulation) (mAC5; 20µM fatty acid concentration)	mAC6 activity [%] (100% = 300nM Gsα stimulation) (mAC6)	mAC7 activity [%] (100% = 300nM Gsα stimulation); 20µM fatty acid concentration (mAC7)	mAC8 activity [%] (100% = 300nM Gsα stimulation) (mAC8)	Effect of lipid on 300 nM Gsα-stimulated mAC3 (mAC3)	mAC9 activity (%);(100% = Gsα stimulation) stimulated by 300nM Gsα (mAC9; [2])	mAC9 activity (%);(100% = Gsα stimulation) stimulated by 300nM Gsα (mAC9; [3])	mAC9 activity (%);(100% = Gsα stimulation) stimulated by 300nM Gsα (mAC9; [4])	EC50 (mAC9) [µM]	other results
CCCC/C=C\CCCCCCCC(=O)O [Myristoleic acid, Myristoleic ((9Z)-tetradecenoic) acid]	90% and 103% and 77%	106% and 81% and 89%	82% and 156% and 95%	79% and 94% and 104%	79% and 90% and 96%	92% and 96%	92% and 95% and 67%	62% and 117% and 101%						mAC9 activity [%] (100% = 300nM Gsα stimulation); 20µM fatty acid concentration (mAC9; [1]): 88% and 116% and 130%
CCCCC/C=C\C/C=C\CCCCCCCC(=O)O [Linoleic acid, Linoleic ((9Z,12Z)-octadecadienoic) acid]	62% and 76% and 95%	118% and 99% and 198% and 131%	376% and 503% and 335% and 235% and 456%		112% and 153%	105% and 198% and 128%	135% and 130%	119% and 212% and 115% and 129%	efficient enhancers	129% and 139% and 117% and 119%	164% and 205% and 170% and 134% and 195%	240% and 217% and 225% and 306% and 322% and 286% and 203%		mAC9 activity (%);(100% = Gsα stimulation) stimulated by 300nM Gsα (mAC9; 1 µM fatty acid, 300 nM Gsα, single experiments): 145% and 101% and 154% and 180%
CCCCCCCC/C=C\CCCCCCCC(N)=O [Oleamide, Oleamide ((9Z)-octadecenamide)]	99% and 109%	133% and 84%	154% and 144% and 201% and 238% and 301% and 167% and 90% and 168%	104% and 64% and 83%	97% and 111%	98% and 77%	107% and 99%	104% and 74%	less efficacious					
CCCCCCCCCCCCCCCC(=O)O [Palmitic acid, Palmitic (hexadecanoic) acid]	93% and 87% and 105%	108% and 97%	279% and 263% and 138% and 341% and 182% and 165% and 224% and 164% and 153% and 126% and 243%	76% and 92% and 77% and 101%	123% and 77% and 97%	91% and 114% and 61% and 106%	106% and 127% and 193% and 124%		less efficacious			258% and 146% and 141% and 173% and 189% and 161% and 157%	8.6	Effect of lipid on 300 nM Gsα-stimulated mAC3 (mAC3; listed as palmitic acid): twofold; EC50 (mAC3; enhancement of 300 nM Gsα-stimulated activity): 6.4 µM; mAC3 activity [%] (100% = 300nM Gsα stimulation) (mAC3; fatty acid 0.5 µM): 100%; mAC3 activity [%] (100% = 300nM Gsα stimulation) (mAC3; fatty acid 1 µM): 166% and 108% and 118% (2×) and 87% and 83% and 122%; mAC3 activity [%] (100% = 300nM Gsα stimulation) (mAC3; fatty acid 3 µM): 122% and 126% and 125% and 136% and 114% and 107% and 116%; mAC3 activity [%] (100% = 300nM Gsα stimulation) (mAC3; fatty acid 6 µM): 107% and 145% and 118% and 129% and 73% and 158% and 259%; mAC3 activity [%] (100% = 300nM Gsα stimulation) (mAC3; fatty acid 10 µM): 188% and 338% and 172% and 339% and 112% and 94% and 165% and 197% and 126% and 128% and 237%; mAC5 activity [%] (100% = 300nM Gsα stimulation) (mAC5; fatty acid 0.5 µM, individual experiments): 100%; mAC5 activity [%] (100% = 300nM Gsα stimulation) (mAC5; fatty acid 1 µM, individual experiments): 71% and 83% and 111%; mAC5 activity [%] (100% = 300nM Gsα stimulation) (mAC5; fatty acid 3 µM, individual experiments): 66% and 80% and 162%; mAC5 activity [%] (100% = 300nM Gsα stimulation) (mAC5; fatty acid 6 µM, individual experiments): 50% and 108% and 125%; mAC5 activity [%] (100% = 300nM Gsα stimulation) (mAC5; fatty acid 10 µM, individual experiments): 57% and 89% and 94% and 103%; mAC5 activity [%] (100% = 300nM Gsα stimulation) (mAC5; fatty acid 20 µM, individual experiments): 123% (2×) and 77% and 97%; mAC9 activity (%);(100% = Gsα stimulation) stimulated by 300nM Gsα (mAC9; [1]): 184%
CCCCCCCCCCCC(=O)O [Lauric acid, Lauric (dodecanoic) acid]		89% and 79%	117% and 189% and 186% and 84%	54% and 104% and 67%	107% and 56%	93% and 80%		80% and 69%		128% and 86% and 116%	165% and 99% and 97% and 190%		13.7	

Source: paper PMC11606603, “The membrane domains of mammalian adenylyl cyclases are lipid receptors” (eLife, 2024)
